Test results: US7018396B2, “Method of treating acne” (New England Medical Center Hospitals, Inc., priority 2001, dated 2006)

Tested on: sebaceous glands present in skin of the hamster ear
Experiment: Hamster ear model: topical uptake of ICG into sebaceous glands (white light and fluorescence micrographs)
Type: in vivo
Settings: 24 hours, 810 nm illumination, 840 nm bandpass filter
Experimental: A chromophore is considered “selectively introduced” to sebaceous glands according to the invention if greater than or equal to about 90% of the chromophore remaining associated with the skin after removal of excess chromophore preparation from the skin surface is observed in sebaceous glands. The proportion of a particular chromophore localized to sebaceous glands from a particular chromophore preparation (e.g., chromophore in oil or chromophore in liposomes or lipid suspension) is determined using an appropriate animal model, such as the hamster ear model described herein. Hamsters are known to have sebaceous glands in their ears. These glands are typically on the order of 200 μm in diameter, making them somewhat larger than typical sebaceous glands in humans. Nonetheless, the hamster ear is a convenient and instructive model for human skin and sebaceous glands.
For example, the non-lipophilic chromophore indocyanine green was introduced to sebaceous glands present in skin of the hamster ear according to the following method. The lipid chromophore suspension was topically applied to hamster ears and allowed to travel into the pores and sebaceous glands for 24 hours. After this time, the hamsters were euthanized and their ears were examined for evidence of ICG in the sebaceous glands. […] ICG fluorescence (840 nm) is stimulated by irradiation with 810 nm light. […]

## CC1(C)C(/C=C/C=C/C=C/C=C2\N(CCCCS(=O)(=O)O)c3ccc4ccccc4c3C2(C)C)=[N+](CCCCS(=O)(=O)[O-])c2ccc3ccccc3c21 [indocyanine green]
  localization of chromophore in skin: present in the sebaceous glands but not in the tissue between the glands
